In PubChem BioAssay AID464 (The Scripps Research Institute Molecular Screening Center, 2006) one finds CC50 data, which are given here for 95 molecules.

Broadly, the CC50 is the concentration that lowers cell viability or growth by half.

Each structure is given as a SMILES string. Calls of active or inactive are those of the source.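 How the source made its calls: active means Compounds that kill half the cells at a concentration of 5 micromolar or below, from the fitted or estimated CC50; inactive means CC50 above 5 micromolar.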 Where only a bound is given, the exact number is not on record here.

This test relates to Jurkat E6.1 viability, ATP luminescence, 48 h. The test can be described thus: Jurkat E6.1 cell cytotoxicity, CC50 determination, dose response, cytotoxicity control, ATP luminescence, 48 h, 60K MLSMR (AID 464).
As to `O=C(c1cc2c(s1)-c1ccccc1OC2)N1CCC2(CC1)OCCO2`, the CC50 was 6.1 µM (inactive). Next, `CCOc1cc(C#N)c(NC(=O)c2ccco2)cc1OCC`: 4.31 µM; `COc1cc(NS(=O)(=O)c2ccc(NC(C)=O)cc2)cc(OC)c1`: 14.8 µM (inactive); `CCOC(=O)c1[nH]c(C)c(C(=O)Nc2ccc(C)cc2C)c1C`: 1.64 µM. On to `O=C(Nc1nc2ccccc2[nH]1)c1ccccc1F`, for which the CC50 was 4.79 µM. Next, `N#CC1=C(N)Oc2cc(N)ccc2C1C1CC=CCC1` (stereo not given): > 4.4 µM (inactive).

`c1ccc(-c2nc(N3CCCCCC3)c3ccccc3n2)nc1`: the CC50 was 10.1 µM (inactive). Consider `c1ccc(CNc2ncnc3c2cnn3-c2ccccc2)cc1`, for which the cytotoxic concentration (CC50) was 3.54 µM.

As to `O=C(c1ccccc1-c1ccccc1)N1CCN(c2ccccn2)CC1`, the 50% cytotoxic concentration (CC50) is 1.55 µM. Next, `COc1cccc(CNC(=O)c2cc3oc4ccccc4c3n2C)c1OC`: > 40 µM (inactive). Next, `COc1cccc(/C=N/n2c(SC)nnc2-c2ccccc2)c1O`: 10 µM (inactive); `O=C(CSc1ncnc2sc3c(c12)CCCCC3)NCc1ccco1`: 9.83 µM (inactive); `N=c1c2c(n(Cc3ccc(Cl)cc3Cl)c3c1CCC3)CCCC2`: 2.26 µM.

Consider `COc1ccc(C(O)c2nc3ccccc3n2C)cc1OC` (stereo not given), for which the CC50 was 5.83 µM (inactive). Turning to `Cc1cc(C)n(-c2ccc(C(=O)Nc3ccc(S(=O)(=O)NCc4ccco4)cc3)cc2)n1`, the CC50 is 5.24 µM (inactive).

For `c1ccc(CNc2ncnc3ccccc23)cc1`, the CC50 was 4.68 µM. Next, `CCOC(=O)C(C(C)=O)c1c(Br)c(O)c(O)c2c(C(=O)c3ccc(C)cc3)coc12` (stereo not given): 6.14 µM (inactive); `CCn1ncc(C2=NOC(C(=O)NCc3ccc(Cl)cc3)C2)c1C` (stereo not given): 1.61 µM; `COc1ccccc1C(=O)N1CCN(c2cccc(C(F)(F)F)c2)CC1`: 2.09 µM.

Take `Cc1ccc2[nH]c3c(NCc4ccco4)ncnc3c2c1`: the CC50 is 18.7 µM (inactive). With `Clc1ccc(OCCN2CCN(c3ncnc4sccc34)CC2)cc1` the figure was 0.938 µM; with `CCN(CC)c1ccc2c(c1)OC(N)=C(C#N)C2c1cccnc1` (stereo not given), 0.0192 µM; with `Cc1noc(C)c1CSc1nc2ccccc2c(=O)n1-c1ccc(F)cc1F`, > 4.4 µM (inactive). With `CN(CCCC(=O)Nc1ccncc1)S(=O)(=O)c1ccc(Cl)cc1`, the CC50 was 5.53 µM (inactive). Take `c1ccc(C(Cc2nc(-c3ccncc3)no2)c2ccccc2)cc1`: the CC50 is 8.52 µM (inactive). For `Cc1noc(C)c1CSc1nc2ccccc2c(=O)n1-c1ccccc1`, the cytotoxic concentration (CC50) was 2.28 µM. With `COc1ccc(NS(=O)(=O)c2cc(C)ccc2C)cc1` the figure was 5.18 µM (inactive); with `COc1ccc(-c2nnc(SCC(=O)Nc3ncc(C)s3)n2-c2ccccc2)cc1OC`, 9.26 µM (inactive). With `O=C(CCc1ccccc1)Nc1ccc(Cl)cn1` the figure was 2.15 µM; with `CCOc1ccccc1C1CC(=O)NC2=C1C(=O)CCC2` (stereo not given), 3.6 µM. With `N=c1ccn(Cc2ccc(Cl)c(Cl)c2)cc1` the figure was 10.4 µM (inactive). In the case of `CCN(CC)c1ccc(NC(=O)c2cc(OC)cc(OC)c2)c(C)c1`, the half-maximal cytotoxic concentration (CC50) was 1.11 µM. On to `COc1ccc(C(=O)n2c(-c3ccco3)nc3ccccc32)cc1`, for which the CC50 is 1.79 µM.

With `CCOc1ccccc1CN(Cc1ccco1)S(=O)(=O)c1ccc(-n2cnnn2)c(OC)c1`, the CC50 is 4.22 µM. Next, `CCCCN(C)S(=O)(=O)c1ccc(C(=O)Nc2nnc(-c3cccs3)o2)cc1`: 14.1 µM (inactive); `Cc1ccc2cc(CN(Cc3ccco3)C(=O)c3cccs3)c(=O)[nH]c2c1`: 2.6 µM; `CC1Cc2cc(-c3csc(NC(=O)Cc4cccs4)n3)ccc2N1S(C)(=O)=O` (stereo not given): 5.23 µM (inactive). With `CCN(CC)C(=O)C1CCCc2c1[nH]c1ccc(Cl)cc21` (stereo not given), the CC50 was > 40 µM (inactive).

As to `COc1cccc(N2C(N)=NC(N)=NC2(C)C)c1`, the CC50 was 2.58 µM. For `Cn1nc(CC(=O)Nc2ccc3c(c2)OCCO3)c2ccccc2c1=O`, the CC50 was 0.96 µM.

In the case of `O=C(Nc1ccc(SC(F)F)cc1)c1ccc2nccnc2c1`, the CC50 is 13.1 µM (inactive). For `COc1ccccc1-c1cc(C(=O)Nc2cccnc2)no1`, the 50% cytotoxic concentration (CC50) is 0.146 µM. Consider `CCOC(=O)Nc1ccc2c(c1)N(C(=O)OC)c1ccccc1CC2`, for which the CC50 is > 4.4 µM (inactive). In the case of `COc1ccc(CC(=O)Nc2cccc(-c3nnc(-c4cccc(C)c4)o3)c2)cc1OC`, the CC50 is 7.1 µM (inactive).

Take `CC(C)C(=O)NC(c1ccco1)c1ccc2cccnc2c1O` (stereo not given): the CC50 was 2.89 µM.

For the molecule `CCc1c(C)nc2ncnn2c1NCCc1ccc(OC)cc1`, the CC50 was 0.901 µM. Next, `COc1ccc(C2CC(c3c(O)cc(C)oc3=O)=NCCS2)c(OC)c1` (stereo not given): 0.318 µM.

For `CCCOc1ccccc1C1CC(=O)Nc2cc3c(cc21)OCCO3` (stereo not given), the CC50 was 0.745 µM.

For `CCn1c(C)nc2cc(-c3nc4n(n3)Cc3ccccc3-4)ccc21`, the half-maximal cytotoxic concentration (CC50) was 2.57 µM.

In the case of `Cc1cc(/C=N/n2cnnc2)c(C)n1-c1ccc(OCc2ccc(F)cc2)cc1`, the CC50 is > 13 µM (inactive).

For the molecule `Cc1cc(NC(=O)CSc2nc(-c3cccs3)cc(C(F)(F)F)n2)no1`, the CC50 is 0.264 µM.

For the molecule `CCOc1ccc2nc(N3CCC(C(=O)N4CCN(c5ccccn5)CC4)CC3)sc2c1`, the CC50 is 23.7 µM (inactive). Next, `COc1ccc(Cl)cc1S(=O)(=O)n1cnc2ccccc21`: > 40 µM (inactive); `COc1ccc(-c2n[nH]c(C)c2-c2ccc(OC)c(OC)c2)c(O)c1`: > 4.4 µM (inactive).

`CCOc1ccc(S(=O)(=O)Nc2cc(OC)ccc2OC)cc1`: the 50% cytotoxic concentration (CC50) is 0.145 µM.

As for `CCOC(=O)CSC1=C(C#N)C(c2ccc(C)o2)CC(=O)N1` (stereo not given), the CC50 was 0.535 µM.

For `CC(=O)c1c(N2CCN(Cc3ccccc3)CC2)[nH]c(-c2ccccc2)nc1=S`, the CC50 is > 40 µM (inactive). With `CSC(=Nc1ccccc1)c1c(O)n(C)c(=O)n(C)c1=O` the figure was 17.8 µM (inactive). As for `CCCn1nc(C(=O)N2CC(=O)Nc3ccccc32)c2ccccc2c1=O`, the CC50 was 2.81 µM. With `Cc1cc2nnc(SCC(=O)NCc3ccco3)n2c2ccccc12` the figure was 1.9 µM; with `Cc1nc2ccc(S(=O)(=O)Nc3ccccc3C)cc2s1`, 8.95 µM (inactive). As to `CCc1cc2c(=O)n(Cc3ccco3)c(SCc3c(C)noc3C)nc2s1`, the CC50 is 4.4 µM.

`COc1ccc(CCNCc2csc3nc4ccccc4n23)cc1OC`: the CC50 was 8.02 µM (inactive). Next, `CN(C)S(=O)(=O)c1ccc(N2CCN(S(=O)(=O)c3ccc(F)cc3)CC2)c(Cl)c1`: 16.1 µM (inactive); `Cc1ccnc(NC(=O)CCCOc2cc(=O)n(C)c3ccccc23)c1`: 5.58 µM (inactive); `Cc1nn(-c2ccccc2)c(C)c1C(=O)OCC(=O)c1c(N)n(CC(C)C)c(=O)n(C)c1=O`: 9.53 µM (inactive). Take `CCCCn1c2c(c(=N)c3c1CCC3)CCC2`: the CC50 was 3.9 µM.

On to `Cc1ccc(Cl)cc1N1CCN(C(=O)C2CCN(c3nnc(-n4cccc4)s3)CC2)CC1`, for which the CC50 is > 40 µM (inactive). In the case of `COc1ccc(C)cc1Nc1cc(C)nc2nc(C)nn12`, the CC50 is 7.08 µM (inactive). For the molecule `CCN1CCN(S(=O)(=O)c2cc(OCC(=O)NC3CCCCC3)c(C)cc2Cl)CC1`, the CC50 was 3.3 µM. As to `COc1ccc(C(=O)N2CCN(c3cccc(Cl)c3)CC2)c(OC)c1`, the CC50 was 8.58 µM (inactive).

As to `CCOC(=O)CS(=O)(=O)c1nc(-c2ccc(F)cc2)cc(C(F)(F)F)n1`, the cytotoxic concentration (CC50) was 3.81 µM. With `CCn1c(SCC(=O)c2c[nH]c3ccccc23)nnc1-c1cccs1` the figure was 8.26 µM (inactive); with `Cc1cc(C)cc(NC2=NC3(CCCCC3)N=C(N)N2)c1`, 4.97 µM; with `CCOC(=O)C(C)Sc1nc2c(cnn2-c2ccc(C)cc2)c(=O)[nH]1` (stereo not given), > 40 µM (inactive).

In the case of `O=C(Nc1nc(-c2ccc(S(=O)(=O)N3CCCCCC3)cc2)cs1)c1cccs1`, the CC50 was > 40 µM (inactive).

For `CCOc1ccccc1C(=O)N1CCN(c2cccc(Cl)c2)CC1`, the half-maximal cytotoxic concentration (CC50) is 0.095 µM. Next, `COCCCN1C(=O)c2[nH]nc(-c3ccccc3O)c2C1c1cccc(Cl)c1` (stereo not given): 3.39 µM; `COc1ccc(NS(=O)(=O)c2ccc(NC(C)=O)cc2)cc1OC`: 17.7 µM (inactive); `Cn1c(SC2=CS(=O)(=O)c3ccccc32)nc2ccccc21`: 2.66 µM. On to `O=C(CCn1c(=O)oc2ccccc21)N1CCN(c2ccccc2Cl)CC1`, for which the CC50 was 5.77 µM (inactive). Next, `CCCNS(=O)(=O)c1ccc(OCC(=O)N2CCN(Cc3ccc4c(c3)OCO4)CC2)cc1`: 7.96 µM (inactive). Regarding `COC(=O)c1ccc(Cl)c(NS(=O)(=O)c2ccc3c(c2)OCCO3)c1`, the cytotoxic concentration (CC50) is 4.81 µM. Next, `COCCNc1nc2c(c(=O)n(C)c(=O)n2C)n1Cc1cccc(C)c1`: 25.6 µM (inactive). With `Oc1c(CN2CCN(c3ccccn3)CC2)cc(Cl)c2cccnc12`, the CC50 was 2.85 µM.

As to `COc1cccc(-c2cc(C(=O)Nc3cccc(O)c3)no2)c1`, the CC50 is > 40 µM (inactive). As to `COCCOC(=O)c1[nH]c2c(c1C)C(=O)CC(c1ccc(F)cc1)C2` (stereo not given), the CC50 was 5.37 µM (inactive).

Regarding `CC(Oc1ccc(Cl)cc1Cl)C(=O)Nc1ccncc1` (stereo not given), the CC50 was 7.07 µM (inactive).

As to `CCn1ncc(C2=NOC(C(=O)NCc3ccccc3)C2)c1C` (stereo not given), the CC50 was 1.09 µM. As to `CCOc1ccc(Nc2cc(C)nc(-n3nc(C)cc3C)n2)cc1`, the 50% cytotoxic concentration (CC50) was 0.191 µM. Next, `Cc1cc(NC(=O)COC(=O)c2ccc(S(=O)(=O)N3CCCc4ccccc43)cc2)no1`: 2.16 µM; `Cc1ccc(O)c(NC(=O)CCC2CCCCC2)c1`: 6 µM (inactive); `O=C(NC1CC1)c1cc2c(s1)-c1ccccc1OC2`: 15.6 µM (inactive). For `CCCCC(=O)Nc1ccc(C(=O)NCCCn2ccnc2)cc1`, the CC50 was > 4.4 µM (inactive). `CC1(C)Cc2nc3sc4c(SCC(=O)NCc5ccco5)ncnc4c3cc2CO1`: the CC50 was 18 µM (inactive).
